# Experiment: gradient 5% acetonitrile 3 min, to 50% in 2 min, to 85% in 15 min, held 3 min, 100 µL/min
# Conditions: column: Zorbax Extend-C18 2.1 x 50 mm; eluents: water / acetonitrile, 0.1% formic acid
# How it was run: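 Using water and acetonitrile that each contained 0.1% formic acid, mixtures of ~100 pure standards were separated at 100 μL/min on a Zorbax Extend-C18 column (2.1 × 50 mm, 1.8 μm). The HPLC fed a quadrupole time-of-flight mass spectrometer working in positive and negative ionization mode, with dead and dwell volumes of 40 μL and 900 μL. Data were acquired over 3 months. Retention time was read from computationally picked adduct peaks after manual inspection of each.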
row,SMILES,RP-LC retention time
1,Cc1ccccc1Nc1c(-c2ccc(N3CCOCC3)cc2)nc2ccc(Br)cn12,795 s
2,CC(C)CCNC(=O)C1(C)CN(S(=O)(=O)c2ccccc2)CC(=O)N1c1ccc(Cl)cc1 (stereo unspecified),992 s
3,CCOc1ccc(NC(=O)Cc2c(C)nn(-c3nc(C)cs3)c2C)cc1,974 s
4,O=C(NC1CCCC1)c1ccc2ncnc(N3CCCCC3)c2c1,640 s
5,O=C(Cc1ccsc1)Nc1ccc(-c2nnc3n2CCCC3)cc1,648 s
6,Cc1ccc(Nc2c(C(=O)N3CCC(C)CC3)cnc3nc(C)ccc23)c(C)c1,674 s
7,CCCc1noc(-c2ccnc(-n3ncc(C(=O)Nc4ccc(Cl)cc4)c3C)c2)n1,1270 s
8,Cc1ccc(S(=O)(=O)NCCSc2ncccn2)cc1,727 s
9,CCOc1ccc(NC(=O)C2CCN(c3cncnc3N3CCOCC3)CC2)cc1,651 s
10,COC(=O)c1ccc(NC(=O)C(=O)NCC2CCN(Cc3ccco3)CC2)cc1,573 s
11,CC(C)CCNC(=O)c1cc2n(n1)CC(C)(C(=O)NCc1ccc(F)cc1)N(C)C2=O (stereo unspecified),770 s
12,Cc1sc2ccn(Cc3ccc(F)cc3)c(=O)c2c1C(=O)NC(C)C,814 s
13,O=C(NCc1ccco1)C1CCN(c2nccnc2Sc2ccccc2)CC1,883 s
14,Cc1nc2cccnc2n1CCN1CCN(C(=O)Nc2ccc(F)cc2)CC1,584 s
15,O=C(NCc1cccc(F)c1)C1CCCN(c2nnc3ccc(Cl)cn23)C1 (stereo unspecified),645 s
16,CC(C)(C)c1cccc(Nc2nc3ccncc3n(Cc3ccccc3)c2=O)c1,963 s
17,COc1cccc(Cn2c(=O)c3sccc3n(Cc3nc(-c4ccc(Cl)c(F)c4)no3)c2=O)c1,1180 s
18,Cc1cc(C)cc(C(=O)Nc2cc(-c3ccccn3)no2)c1,911 s
19,Cc1nc(Cn2cccc2C(=O)Nc2ccc(C)c(F)c2)no1,889 s
20,COc1ccc2c(c1)C1(CCN(S(=O)(=O)c3ccc(C)cc3)C1)C(=O)N2 (stereo unspecified),843 s
21,Cc1ccc(N2CCN(C(=O)c3cc(C)n4nccc4n3)CC2)cc1,818 s
22,Cc1ccc(N2CCC(NC(=O)c3ccccc3)C2=O)cc1 (stereo unspecified),794 s

row,SMILES,RP-LC retention time
1,CC1CN(CC(=O)N2CCN(Cc3ccc4c(c3)OCO4)CC2)c2ccccc2S1 (stereo unspecified),723 s
2,COc1ccc(N2CC(C(=O)N3CCC(C(=O)NC4CCS(=O)(=O)C4)CC3)CC2=O)cc1 (stereo unspecified),603 s
3,CCCOc1ccc(NC(=O)c2cc(=O)c3ccc(C)cc3o2)c2cccnc12,686 s
4,O=C1C2CCCN2C(c2ccncc2)N1c1cccc(Cl)c1 (stereo unspecified),587 s
5,O=C1CC(C(F)(F)F)c2c(c(C(=O)O)cn2-c2ccc(Cl)cc2)N1 (stereo unspecified),786 s
6,CCCS(=O)(=O)N1CCCN(C2=NS(=O)(=O)C(c3cccc(Cl)c3)=C2C)CC1,891 s
7,CC1(C)CC(NC(=O)COc2ccc(Cl)cc2Br)CC(C)(C)N1,661 s
8,Cc1ccc(Cn2c(N3CCCC(C(=O)NCCc4cccs4)C3)nc3ccsc3c2=O)cc1 (stereo unspecified),1000 s
9,COc1ccc(CNc2nccn(-c3ccc4c(c3)OCO4)c2=O)cc1OC,724 s
10,O=S(=O)(Nc1cnn(-c2ncc(N3CCCC3)cn2)c1)c1ccc2c(c1)CCCC2,983 s
11,COC(=O)c1cncn1C(C)c1ccccc1 (stereo unspecified),737 s
12,CCOC(=O)N1CCN(C(=O)Cc2c(C)nn(-c3nc(-c4ccccc4)cs3)c2C)CC1,998 s
13,CC1(c2nc(C3CC3)no2)CCCN(C(=O)c2ccc3nc[nH]c3c2)C1 (stereo unspecified),595 s
14,COC(=O)CC(NC(=O)N1CCCn2nc(-c3ccncc3)cc2C1)c1ccccc1 (stereo unspecified),608 s
15,COc1ccc(CCNC(=O)C2CCCN(S(=O)(=O)c3ccc(OC)c(Cl)c3)C2)cc1 (stereo unspecified),938 s
16,CCC1CCCCN1C(=O)c1cnc2nc(C)ccc2c1Nc1cc(C)cc(C)c1 (stereo unspecified),722 s
17,Cc1ccc(-n2nc(C)c3sc(N4CCCC(C(=O)NC5CCCc6ccccc65)C4)nc32)cc1 (stereo unspecified),1300 s
18,CCOc1nn(CC)cc1C(=O)NCCc1c[nH]c2ccccc12,736 s
19,CCc1nn2c(CNC(=O)c3ccccc3Br)c(-c3ccccc3)nc2s1,903 s
20,Clc1cccc(-c2nnc(-c3nc(NCCC4=CCCCC4)c4ccccc4n3)o2)c1,1370 s
21,CN1C(=O)c2cccn2CC1C(=O)NC1CCCCC1 (stereo unspecified),681 s
22,Cn1nc(C2CCN(C(=O)C3CCCO3)CC2)c2c1CCOC2 (stereo unspecified),586 s

row,SMILES,RP-LC retention time
1,CCc1cc(C(=O)Cc2nc3ccccc3n2C)c(O)cc1O,587 s
2,COc1ccccc1-c1nc(Cn2nnc(-c3nc(-c4ccccn4)no3)c2C)c(C)o1,827 s
3,CCCc1cc(N2CCN(C(=O)c3cccn3C)CC2)nc2nnc(CC)n12,636 s
4,CCOc1c(Br)cc(C(=O)Nc2ccc(C(=O)O)cc2)cc1C(=O)c1ccc(C)cc1,1130 s
5,COc1ccc(NC(=O)N2CCC(CC(=O)N3CCCCC3)CC2)cc1,706 s
6,O=C(NCCc1c[nH]c2ccc(Cl)cc12)c1ccc(-n2nnc3cccnc32)cc1,922 s
7,Cc1ccc(Cn2cccc2-c2nc(-c3ccc(F)cc3)no2)cc1,1460 s
8,COc1ccc(CCC(=O)N2CCC3(C2)C(=O)N(C)c2ccccc23)cc1 (stereo unspecified),872 s
9,COc1ccc(CNC(=O)N2CCC(c3noc(-c4cnccn4)n3)C2)cc1 (stereo unspecified),652 s
10,Cn1c(=O)c(C(=O)N2CCCCC2)nc2cccnc21,648 s
11,Cc1c(F)cccc1NC(=O)Nc1ccc(Nc2cc(-n3cccn3)ncn2)cc1,866 s
12,CCOc1ccccc1NC(=O)N1c2ccccc2CC1c1nc(C2CC2)no1 (stereo unspecified),1180 s
13,O=C(c1cn(-c2cc(N3CCOCC3)ncn2)cn1)N1CCSCC1,685 s
14,COCCN1C(=O)CCc2cc(NS(=O)(=O)c3ccc4c(c3)CCC4)ccc21,854 s
15,COc1cc(OC)c(NC(=O)N2CCCC(C)(C(=O)NCc3ccccc3)C2)cc1Cl (stereo unspecified),897 s
16,CN1CCN(CCCNC(=O)c2cc3occc3c(Nc3ccc(F)cc3)n2)CC1,616 s
17,CCOC(=O)c1ccc2nc(C)cc(NC(=O)c3ccco3)c2c1,583 s
18,CC(C)CN(CC(C)C)c1nc(-c2ccc(Cl)cc2)nc2ccccc12,1130 s
19,CN(C)S(=O)(=O)c1ccc(C(=O)Nc2nc3c(s2)CCc2ccccc2-3)cc1,1110 s
20,Cc1noc(-c2ccc(-n3cnc(C(=O)NC(C)c4ccc(F)cc4)c3)nc2)n1 (stereo unspecified),862 s
21,Cc1ccc2[nH]cc(CCN3CC(C(=O)Nc4ccc5c(c4)OCO5)CC3=O)c2c1 (stereo unspecified),783 s
22,O=C(Cn1nc2c(N3CCCCCC3)nccn2c1=O)Nc1ccc2c(c1)OCCO2,668 s

# From the METLIN SMRT retention time set (Domingo-Almenara et al. 2019)
